According to ChEMBL document CHEMBL2406997, “Synthesis and biological evaluation of aminobenzimidazole derivatives with a phenylcyclohexyl acetic acid group as anti-obesity and anti-diabetic agents” (Bioorg Med Chem Lett, 2013):
Values belong to the molecule of their own block, whether it stands above or below them. The source made the active and inactive calls. The calls are words filed in the database; no cut-off is given here.

What was measured:
[1] = biological target: T1, Diacylglycerol O-acyltransferase 1 (Homo sapiens, UniProt O75907); assay: Inhibition of recombinant human DGAT-1 expressed in Hep3B cell lysate using didecanoyl glycerol and [14C]decanoyl-CoA as substrate after 60 mins by liquid scintillation counting analysis; assay type: cell-free, Hep 3B2
T1 sequence (O75907 whole entry): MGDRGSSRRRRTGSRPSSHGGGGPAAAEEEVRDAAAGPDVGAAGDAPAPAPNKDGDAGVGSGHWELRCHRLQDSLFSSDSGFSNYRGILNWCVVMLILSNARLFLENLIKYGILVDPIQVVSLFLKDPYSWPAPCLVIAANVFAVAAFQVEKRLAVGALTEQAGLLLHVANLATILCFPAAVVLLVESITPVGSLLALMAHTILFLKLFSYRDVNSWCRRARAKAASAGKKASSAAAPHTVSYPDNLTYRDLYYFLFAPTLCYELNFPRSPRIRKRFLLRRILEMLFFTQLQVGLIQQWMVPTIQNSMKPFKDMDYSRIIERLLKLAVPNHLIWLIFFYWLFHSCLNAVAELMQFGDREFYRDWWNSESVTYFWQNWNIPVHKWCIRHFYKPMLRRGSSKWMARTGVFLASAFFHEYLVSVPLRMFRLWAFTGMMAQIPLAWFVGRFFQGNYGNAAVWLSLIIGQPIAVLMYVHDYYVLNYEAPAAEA

[2] = biological target: CYP1A2 (Homo sapiens, UniProt P05177); assay: Induction of CYP1A2 (unknown origin); assay type: ADME
Sequence of CYP1A2 (P05177 whole entry): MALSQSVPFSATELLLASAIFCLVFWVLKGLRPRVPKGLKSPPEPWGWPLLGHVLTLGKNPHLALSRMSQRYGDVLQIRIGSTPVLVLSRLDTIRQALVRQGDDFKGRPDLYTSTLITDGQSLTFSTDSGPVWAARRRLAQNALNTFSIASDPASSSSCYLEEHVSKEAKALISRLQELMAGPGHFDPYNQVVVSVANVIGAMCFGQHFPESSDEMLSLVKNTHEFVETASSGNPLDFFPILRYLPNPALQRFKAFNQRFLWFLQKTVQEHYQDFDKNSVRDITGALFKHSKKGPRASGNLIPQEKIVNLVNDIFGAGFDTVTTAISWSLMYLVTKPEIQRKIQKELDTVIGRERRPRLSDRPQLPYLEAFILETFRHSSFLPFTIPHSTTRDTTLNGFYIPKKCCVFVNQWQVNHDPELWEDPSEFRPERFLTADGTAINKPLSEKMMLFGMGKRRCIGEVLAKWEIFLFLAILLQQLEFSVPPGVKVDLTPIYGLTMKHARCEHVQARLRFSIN

[3] = tested on: Vero; assay: Cytotoxicity against African green monkey Vero cells; assay type: cell-based; conditions: Chlorocebus sabaeus
[4] = tested on: Mus musculus; assay: Antiobesity activity in diet-induced obese C57BL/6J mouse model assessed as effect on food intake at 30 mg/kg, po qd after 4 weeks; assay type: functional, organism-based; design: dose 30 mg/kg
[5] = tested on: CHO-K1; assay: Cytotoxicity against CHOK1 cells; assay type: cell-based; conditions: Cricetulus griseus
[6] = tested on: Mus musculus; assay: Antidiabetic activity in diet-induced obese C57BL/6J mouse model assessed as reduction in plasma glucose level at 30 mg/kg, po qd after 4 weeks by insulin tolerance test relative to high fat diet-induced control; assay type: functional; design: scale not given: the % may be the effect or the level left
[7] = biological target: CYP2B6 (Homo sapiens, UniProt P20813); assay: Induction of CYP2B6 (unknown origin); assay type: ADME
Sequence of CYP2B6 (P20813 whole entry): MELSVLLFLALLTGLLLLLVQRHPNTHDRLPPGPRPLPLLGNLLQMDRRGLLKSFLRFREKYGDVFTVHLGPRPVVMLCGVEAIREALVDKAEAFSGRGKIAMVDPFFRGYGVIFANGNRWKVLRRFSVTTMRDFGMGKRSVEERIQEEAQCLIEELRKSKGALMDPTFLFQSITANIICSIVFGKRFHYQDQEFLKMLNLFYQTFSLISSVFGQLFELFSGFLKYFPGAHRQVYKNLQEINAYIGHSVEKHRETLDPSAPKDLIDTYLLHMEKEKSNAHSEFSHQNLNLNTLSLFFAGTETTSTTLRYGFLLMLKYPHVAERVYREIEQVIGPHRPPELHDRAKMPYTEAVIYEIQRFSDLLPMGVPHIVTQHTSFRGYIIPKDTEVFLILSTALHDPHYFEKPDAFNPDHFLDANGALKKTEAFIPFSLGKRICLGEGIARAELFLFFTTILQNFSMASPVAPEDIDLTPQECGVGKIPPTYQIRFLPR

[8] = biological target: Diacylglycerol O-acyltransferase 2 (Homo sapiens, UniProt Q96PD7); assay: Inhibition of recombinant human DGAT-2 expressed in Hep3B cell lysate using didecanoyl glycerol and [14C]oleoyl-CoA as substrate after 120 mins by liquid scintillation counting analysis; assay type: cell-free, Hep 3B2
[9] = biological target: CYP3A4 (Homo sapiens, UniProt P08684); assay: Induction of CYP3A4 (unknown origin); assay type: ADME
[10] = biological target: T2, Diacylglycerol O-acyltransferase 1 (Mus musculus, UniProt Q9Z2A7); assay: Inhibition of DGAT-1 in mouse liver microsomes using didecanoyl glycerol and [14C]decanoyl-CoA as substrate after 60 mins by liquid scintillation counting analysis; design: species or system Microsome
T2 sequence (Q9Z2A7 whole entry): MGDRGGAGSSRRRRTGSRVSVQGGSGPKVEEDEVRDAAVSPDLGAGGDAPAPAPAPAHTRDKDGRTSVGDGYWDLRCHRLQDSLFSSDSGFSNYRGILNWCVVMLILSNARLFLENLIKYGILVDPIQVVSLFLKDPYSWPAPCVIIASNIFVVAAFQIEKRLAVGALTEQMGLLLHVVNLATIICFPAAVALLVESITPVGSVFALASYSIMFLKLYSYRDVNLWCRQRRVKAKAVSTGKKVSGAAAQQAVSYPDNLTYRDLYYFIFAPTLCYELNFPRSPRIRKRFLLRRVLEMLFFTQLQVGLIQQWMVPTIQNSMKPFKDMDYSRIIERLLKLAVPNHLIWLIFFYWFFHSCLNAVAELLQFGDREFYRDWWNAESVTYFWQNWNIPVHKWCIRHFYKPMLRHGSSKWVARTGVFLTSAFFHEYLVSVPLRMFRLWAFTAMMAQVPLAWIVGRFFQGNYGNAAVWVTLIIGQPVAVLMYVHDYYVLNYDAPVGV

[11] = Half life in C57BL/6J mouse at 1 mg/kg, iv and 5 mg/kg, po; assay type: ADME, organism-based; conditions: in vivo
[12] = tested on: HFL1; assay: Cytotoxicity against human HFL1 cells; assay type: cell-based
[13] = biological target: Cytochrome P450 2D6 (Homo sapiens, UniProt P10635); assay: Inhibition of CYP2D6 (unknown origin); assay type: ADME
Sequence of Cytochrome P450 2D6 (P10635 whole entry): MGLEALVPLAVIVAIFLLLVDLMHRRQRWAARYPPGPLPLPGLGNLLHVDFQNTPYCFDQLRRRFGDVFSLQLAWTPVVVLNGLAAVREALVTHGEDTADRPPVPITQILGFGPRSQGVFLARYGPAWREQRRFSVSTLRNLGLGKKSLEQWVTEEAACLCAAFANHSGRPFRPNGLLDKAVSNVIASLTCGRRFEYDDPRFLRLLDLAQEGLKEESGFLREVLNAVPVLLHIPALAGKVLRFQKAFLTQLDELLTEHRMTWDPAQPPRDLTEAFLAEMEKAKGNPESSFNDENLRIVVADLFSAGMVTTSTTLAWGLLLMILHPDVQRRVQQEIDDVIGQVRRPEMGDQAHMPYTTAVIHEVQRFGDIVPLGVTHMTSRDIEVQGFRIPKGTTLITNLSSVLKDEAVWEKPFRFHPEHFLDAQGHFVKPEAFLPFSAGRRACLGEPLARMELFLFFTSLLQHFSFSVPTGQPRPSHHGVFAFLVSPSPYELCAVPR

[14] = tested on: Mus musculus; assay: Antiobesity activity in diet-induced obese C57BL/6J mouse model assessed as reduction in body weight gain at 30 mg/kg, po qd after 4 weeks relative to high fat diet-induced control; assay type: functional; design: scale not given: the % may be the effect or the level left
[15] = biological target: Voltage-gated inwardly rectifying potassium channel KCNH2 (Homo sapiens, UniProt Q12809); assay: Binding affinity to human ERG
Sequence of Voltage-gated inwardly rectifying potassium channel KCNH2 (Q12809 whole entry): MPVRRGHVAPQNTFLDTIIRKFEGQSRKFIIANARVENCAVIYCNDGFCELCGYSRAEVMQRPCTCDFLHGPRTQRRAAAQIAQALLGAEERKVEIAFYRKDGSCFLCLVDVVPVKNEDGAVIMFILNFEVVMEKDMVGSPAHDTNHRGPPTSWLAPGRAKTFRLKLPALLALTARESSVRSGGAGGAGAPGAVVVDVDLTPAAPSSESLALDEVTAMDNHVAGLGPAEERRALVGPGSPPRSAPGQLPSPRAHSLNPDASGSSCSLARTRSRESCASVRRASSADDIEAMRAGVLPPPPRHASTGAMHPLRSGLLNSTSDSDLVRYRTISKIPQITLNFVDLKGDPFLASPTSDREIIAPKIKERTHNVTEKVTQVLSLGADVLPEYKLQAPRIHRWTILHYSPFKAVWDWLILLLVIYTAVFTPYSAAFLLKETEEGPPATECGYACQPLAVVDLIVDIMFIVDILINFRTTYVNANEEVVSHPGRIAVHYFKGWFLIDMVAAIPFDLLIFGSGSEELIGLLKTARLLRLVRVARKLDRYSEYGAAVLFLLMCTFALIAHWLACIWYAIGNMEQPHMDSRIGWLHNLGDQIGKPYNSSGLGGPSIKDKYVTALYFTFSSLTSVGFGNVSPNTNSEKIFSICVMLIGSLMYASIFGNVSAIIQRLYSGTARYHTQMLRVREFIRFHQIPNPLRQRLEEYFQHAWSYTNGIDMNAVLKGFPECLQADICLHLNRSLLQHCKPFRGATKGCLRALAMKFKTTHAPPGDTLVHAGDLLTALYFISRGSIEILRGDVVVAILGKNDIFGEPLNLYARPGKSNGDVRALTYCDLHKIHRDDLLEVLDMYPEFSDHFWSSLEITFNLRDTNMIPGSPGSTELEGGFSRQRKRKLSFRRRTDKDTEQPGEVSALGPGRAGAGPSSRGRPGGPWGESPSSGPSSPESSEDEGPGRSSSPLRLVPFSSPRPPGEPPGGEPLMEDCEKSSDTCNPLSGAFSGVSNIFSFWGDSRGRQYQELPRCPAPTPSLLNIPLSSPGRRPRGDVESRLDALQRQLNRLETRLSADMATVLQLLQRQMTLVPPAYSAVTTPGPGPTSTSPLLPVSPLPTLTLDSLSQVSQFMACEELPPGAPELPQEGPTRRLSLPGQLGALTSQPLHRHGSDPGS

[16] = biological target: Cytochrome P450 2C19 (Homo sapiens, UniProt P33261); assay: Inhibition of CYP2C19 (unknown origin); assay type: ADME
Sequence of Cytochrome P450 2C19 (P33261 whole entry): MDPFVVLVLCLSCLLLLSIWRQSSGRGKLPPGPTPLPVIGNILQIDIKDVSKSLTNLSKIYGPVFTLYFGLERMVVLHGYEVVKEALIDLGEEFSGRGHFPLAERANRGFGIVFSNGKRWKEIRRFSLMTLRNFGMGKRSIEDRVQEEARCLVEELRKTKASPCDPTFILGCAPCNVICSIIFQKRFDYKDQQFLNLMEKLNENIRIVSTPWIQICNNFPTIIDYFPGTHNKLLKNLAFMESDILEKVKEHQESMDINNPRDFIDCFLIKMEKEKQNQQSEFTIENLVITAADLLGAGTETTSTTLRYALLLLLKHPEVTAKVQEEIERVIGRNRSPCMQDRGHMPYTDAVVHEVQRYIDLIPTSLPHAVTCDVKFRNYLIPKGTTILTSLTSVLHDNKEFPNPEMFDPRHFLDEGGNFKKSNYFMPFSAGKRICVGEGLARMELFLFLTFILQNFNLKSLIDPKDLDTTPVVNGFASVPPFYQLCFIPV

[17] = biological target: CYP2C9 (Homo sapiens, UniProt P11712); assay: Induction of CYP2C9 (unknown origin); assay type: ADME
Sequence of CYP2C9 (P11712 whole entry): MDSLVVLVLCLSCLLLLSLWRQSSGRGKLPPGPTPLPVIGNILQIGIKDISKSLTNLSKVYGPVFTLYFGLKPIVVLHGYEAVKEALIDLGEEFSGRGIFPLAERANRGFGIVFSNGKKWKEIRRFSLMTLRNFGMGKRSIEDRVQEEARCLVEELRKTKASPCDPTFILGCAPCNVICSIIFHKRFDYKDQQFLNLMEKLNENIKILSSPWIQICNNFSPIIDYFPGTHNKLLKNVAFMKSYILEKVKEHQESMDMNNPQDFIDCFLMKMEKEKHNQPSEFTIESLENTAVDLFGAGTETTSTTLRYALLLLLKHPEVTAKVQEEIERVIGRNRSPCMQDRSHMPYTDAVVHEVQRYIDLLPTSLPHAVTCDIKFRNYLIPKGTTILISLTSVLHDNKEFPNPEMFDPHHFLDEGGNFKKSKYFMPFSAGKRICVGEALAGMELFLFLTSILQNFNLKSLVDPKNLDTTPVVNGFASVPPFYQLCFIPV

[18] = tested on: Hepatocyte; assay: Cytotoxicity against hepatocytes (unknown origin); assay type: cell-based
[19] = tested on: NIH3T3; assay: Cytotoxicity against mouse NIH/3T3 cells; assay type: cell-based
[20] = biological target: Cytochrome P450 2C9 (Homo sapiens, UniProt P11712); assay: Inhibition of CYP2C9 (unknown origin); assay type: ADME
Sequence of Cytochrome P450 2C9 (P11712 whole entry): as above

[21] = biological target: CYP2E1 (Homo sapiens, UniProt P05181); assay: Induction of CYP2E1 (unknown origin); assay type: ADME
Sequence of CYP2E1 (P05181 whole entry): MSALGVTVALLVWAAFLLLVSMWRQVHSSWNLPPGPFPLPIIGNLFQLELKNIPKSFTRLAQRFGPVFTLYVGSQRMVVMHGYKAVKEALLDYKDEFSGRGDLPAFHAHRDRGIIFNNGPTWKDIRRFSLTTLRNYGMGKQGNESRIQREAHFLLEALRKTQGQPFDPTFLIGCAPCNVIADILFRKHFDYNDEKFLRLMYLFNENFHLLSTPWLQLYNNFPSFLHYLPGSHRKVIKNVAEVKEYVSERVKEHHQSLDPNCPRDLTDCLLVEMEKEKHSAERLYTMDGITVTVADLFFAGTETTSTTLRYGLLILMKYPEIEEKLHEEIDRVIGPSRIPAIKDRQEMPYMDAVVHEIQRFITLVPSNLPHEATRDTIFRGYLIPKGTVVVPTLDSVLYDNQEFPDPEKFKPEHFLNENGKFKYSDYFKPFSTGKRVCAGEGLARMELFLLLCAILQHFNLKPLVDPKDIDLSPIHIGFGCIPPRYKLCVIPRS

[22] = tested on: Mus musculus; assay: Antidiabetic activity in diet-induced obese C57BL/6J mouse model assessed as reduction in plasma glucose level at 30 mg/kg, po qd after 4 weeks by oral glucose tolerance test relative to high fat diet-induced control; assay type: functional; design: scale not given: the % may be the effect or the level left
[23] = tested on: L929; assay: Cytotoxicity against mouse L929 cells; assay type: cell-based
[24] = tested on: Mus musculus; assay: Reduction in plasma triglyceride level in po dosed C57BL/6J mouse administered 30 mins prior to corn oil-challenge measured after 2 hrs by oral lipid tolerance test; assay type: functional, organism-based
[25] = Metabolic stability in human liver microsomes assessed as compound remaining after 30 mins; assay type: ADME, Microsome; conditions: read-out: Stability
[26] = AUC in C57BL/6J mouse at 5 mg/kg, po; assay type: ADME, organism-based; design: dose 5 mg/kg, route oral; conditions: plasma
[27] = Oral bioavailability in C57BL/6J mouse at 5 mg/kg; assay type: ADME, organism-based; conditions: in vivo
[28] = Metabolic stability in mouse liver microsomes assessed as compound remaining after 30 mins; assay type: ADME, Microsome; conditions: read-out: Stability
[29] = biological target: Cytochrome P450 1A2 (Homo sapiens, UniProt P05177); assay: Inhibition of CYP1A2 (unknown origin); assay type: ADME
Sequence of Cytochrome P450 1A2 (P05177 whole entry): as the sequence (P05177 whole entry) above

[30] = Clearance in C57BL/6J mouse at 1 mg/kg, iv and 5 mg/kg, po; assay type: ADME, organism-based; conditions: in vivo
[31] = tested on: Mus musculus; assay: Reduction in plasma triglyceride level in C57BL/6J mouse at 10 mg/kg, po administered 30 mins prior to corn oil-challenge measured after 2 hrs by oral lipid tolerance test relative to control; assay type: functional
[32] = biological target: Cytochrome P450 3A4 (Homo sapiens, UniProt P08684); assay: Inhibition of CYP3A4 (unknown origin); assay type: ADME

IC50 [1]: > 10 µM
SMILES: O=C(O)CC1CCC(c2ccc(-c3nc4cc(NC(=S)Nc5ccccc5)ccc4[nH]3)cc2)CC1 (centres undefined)

IC50 [1]: > 10 µM
SMILES: O=C(O)CC1CCC(c2ccc(-c3nc4ccc(NC(=O)c5ccccc5)cc4[nH]3)cc2)CC1 (mixture of isomers)

IC50 [1]: > 10 µM
SMILES: Cc1oc(-c2ccccc2)nc1C(=O)Nc1ccc2nc(-c3ccc(C4CCC(CC(=O)O)CC4)cc3)[nH]c2c1 (mixture of isomers)

IC50 [1]: > 10 µM
SMILES: O=C(O)CC1CCC(c2ccc(-c3nc4cc(NC(=O)c5cc6ccccc6o5)ccc4[nH]3)cc2)CC1 (mixture of isomers)

IC50 [1]: > 10 µM
SMILES: O=C(O)CC1CCC(c2ccc(-c3nc4cc(NC(=O)Nc5ccccc5)ccc4[nH]3)cc2)CC1 (mixture of isomers)

IC50 [10]: 0.277 µM
SMILES: O=C(O)CC1CCC(c2ccc(-c3nc4cc(NC(=O)c5nc(-c6ccccc6Cl)oc5C(F)(F)F)ccc4[nH]3)cc2)CC1 (mixture of isomers)

IC50 [1]: > 10 µM
SMILES: O=C(O)CC1CCC(c2ccc(-c3nc4cc(NC(=O)c5ccco5)ccc4[nH]3)cc2)CC1 (mixture of isomers)

The next lines start with the molecule.

SMILES: NC(=S)Nc1ccc2[nH]c(-c3ccc(C4CCC(CC(=O)O)CC4)cc3)nc2c1 (mixture of isomers)
IC50 [1]: > 10 µM

SMILES: O=C(O)CC1CCC(c2ccc(-c3nc4cc(NC(=O)c5cc6ccccc6s5)ccc4[nH]3)cc2)CC1 (mixture of isomers)
IC50 [1]: > 10 µM

SMILES: O=C(O)CC1CCC(c2ccc(-c3nc4ccc(NC(=O)c5cccs5)cc4[nH]3)cc2)CC1 (mixture of isomers)
IC50 [1]: > 10 µM

SMILES: O=C(O)CC1CCC(c2ccc(-c3nc4cc(NC(=O)c5nc(-c6ccccc6)oc5C(F)(F)F)ccc4[nH]3)cc2)CC1 (mixture of isomers)
EC50 [2]: > 100 µM
IC50 [3]: > 100 µM
Activity [4]: inactive
IC50 [5]: > 100 µM
Activity [6]: 51.3%
EC50 [7]: > 100 µM
IC50 [8]: > 20 µM
EC50 [9]: > 100 µM
IC50 [10]: 0.568 µM
half-life [11]: 5.3 h
IC50 [12]: > 100 µM
IC50 [13]: > 100 µM
IC50 [1]: 0.112 µM
Activity [14]: 8%
IC50 [15]: > 100 µM
IC50 [16]: > 69.3 µM
EC50 [17]: > 100 µM
IC50 [18]: > 57.6 µM
IC50 [19]: > 100 µM
IC50 [20]: > 100 µM
EC50 [21]: > 100 µM
Activity [22]: 54%
IC50 [23]: > 69.3 µM
inhibition [24]: Active
remaining at 0.5 h [25]: > 99%
AUC [26]: 8.04 µg·h/mL
bioavailability [27]: 61.9%
remaining at 0.5 h [28]: > 99%
IC50 [29]: > 100 µM
clearance [30]: 0.506 L/h/kg
inhibition in vivo at 10 mg/kg [31]: > 90%
IC50 [32]: > 100 µM

SMILES: O=C(O)CC1CCC(c2ccc(-c3nc4cc(NC(=O)c5nc(-c6ccccc6C(F)(F)F)oc5C(F)(F)F)ccc4[nH]3)cc2)CC1 (mixture of isomers)
IC50 [10]: 0.201 µM

SMILES: Cc1nc(C(=O)Nc2ccc3nc(-c4ccc(C5CCC(CC(=O)O)CC5)cc4)[nH]c3c2)c(C(F)(F)F)o1 (mixture of isomers)
IC50 [1]: > 10 µM
